Patent publication US20030022820A1, “IN VIVO ACTIVATION OF TUMOR-SPECIFIC CYTOTOXIC T CELLS” (priority 1995, published 2003)

Molecular target: A2.1/K^b on EA2 target cells (UniProt P01901+P04439, D140Y/D185E/D98H/E176V/G131W/I119V/I121R/I166T/N151K/N90K/Q86G/Q94H/R138H/R169H)
Type: binding, chimeric human-mouse

Sequence: ILKEPVHGV [HIV-1 RT: 476-484, reference compound]
- binding to A2.1/K^b (percent specific lysis of EA2/K^b targets, FIG. 1), in words: efficiently bound to A2.1/K^b

Sequence: ILLVVVLGV [Peptide H9]
- inhibition of binding of the influenza A-derived peptide to A2.1/K^b (FIG. 5), in words: highest efficiency
